Two molecules from patent EP4273147A1, “SUBSTITUTED SPIROLACTAMS, SALTS THEREOF AND THEIR USE AS HERBICIDALLY ACTIVE SUBSTANCES” (Bayer Aktiengesellschaft, priority 2022, dated 2023) can be followed below.

Assay [1] relates to ABUTH. The experiment in a line: Herbicidal pre-emergence action (Table A1). The format is in vivo, Abutilon theophrasti. The settings on record: application rate 1280 g/ha; visual grading after ca. 3 weeks vs untreated controls (100% = plants have died off, 0% = as control plants). In outline:
(§1)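 Pots: sandy loam. Sowing: one mono- and one dicot weed species together per pot. Seeds covered with soil.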

In assay [2] the test system is ECHCG. The experiment in a line: Herbicidal pre-emergence action (Table A2). The settings on record: application rate 1280 g/ha; visual grading after ca. 3 weeks. Type of assay: in vivo, Echinochloa crus-galli. The method in brief:
as §1

Assay [3] relates to LOLRI. The experiment in a line: Herbicidal pre-emergence action (Table A3). The settings on record: Lolium rigidum, pre-emergence, 504 h, application rate 1280 g/ha; visual grading after ca. 3 weeks; read-out: pre-emergence activity against LOLRI. The format is in vivo, Lolium rigidum. In outline: as §1
The next assay relates to MATIN. The experiment in a line: Herbicidal pre-emergence action (Table A4). Conditions: application rate 1280 g/ha; visual grading after ca. 3 weeks. Type of assay: in vivo, Matricaria inodora. In outline:
as §1

The subject of assay [4] is SETVI. The experiment in a line: Herbicidal pre-emergence action (Table A5). Type of assay: in vivo, Setaria viridis. The settings on record: application rate 320 g/ha; visual grading after ca. 3 weeks. The method in brief:
as §1

The test system of assay [5] is STEME. The experiment in a line: Herbicidal pre-emergence action (Table A6). Type of assay: in vivo, Stellaria media. Conditions: application rate 320 g/ha; visual grading after ca. 3 weeks. The method in brief:
as §1

For assay [6], the system named is POAAN. The experiment in a line: Herbicidal pre-emergence action (Table A7). Conditions: Poa annua, pre-emergence, 504 h; application rate 320 g/ha; visual grading after ca. 3 weeks; read-out: pre-emergence activity against POAAN. The format is in vivo, Poa annua. The method in brief: as §1
Assay [7] has as its system AMARE. The experiment in a line: Herbicidal pre-emergence action (Table A8). Type of assay: in vivo, Amaranthus retroflexus. Conditions: application rate 320 g/ha; visual grading after ca. 3 weeks vs untreated controls (100% = plants have died off, 0% = as control plants). In outline:
as §1

Assay [8] deals with KCHSC. The experiment in a line: Herbicidal pre-emergence action (Table A10). Type of assay: in vivo, Kochia scoparia. Conditions: application rate 320 g/ha; visual grading after ca. 3 weeks. The method in brief:
as §1

For assay [9], the system named is VERPE. The experiment in a line: Herbicidal pre-emergence action (Table A11). Type of assay: in vivo, Veronica persica. Conditions: application rate 1280 g/ha; visual grading after ca. 3 weeks. The method in brief:
as §1

For assay [10], the system named is DIGSA. The experiment in a line: Herbicidal pre-emergence action (Table A12). Conditions: application rate 320 g/ha; visual grading after ca. 3 weeks. The format is in vivo, Digitaria sanguinalis. In outline:
as §1

For assay [11], the system named is ABUTH. The experiment in a line: Herbicidal post-emergence action (Table B1). Type of assay: in vivo, Abutilon theophrasti. The settings on record: application rate 320 g/ha; treated at one-leaf stage; rated visually after about 3 weeks vs untreated controls (100% = plants have died, 0% = like control plants). The method in brief: (§2)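 Visual rating of activity versus untreated plants about 3 weeks after treatment: 0% means no difference from controls, 100% means complete kill. Test weeds were raised from seed in sandy loam under controlled greenhouse conditions and sprayed at the one-leaf stage.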

Assay [12] concerns ALOMY. The experiment in a line: Herbicidal post-emergence action (Table B2). Type of assay: in vivo, Alopecurus myosuroides. Conditions: application rate 1280 g/ha; rated visually after about 3 weeks. The method in brief:
as §2

The test system of assay [13] is ECHCG. The experiment in a line: Herbicidal post-emergence action (Table B3). The format is in vivo, Echinochloa crus-galli. Conditions: Echinochloa crus-galli, post-emergence, 504 h; application rate 320 g/ha; rated visually after about 3 weeks; read-out: post-emergence activity against ECHCG. The method in brief: as §2
The subject of assay [14] is KCHSC. The experiment in a line: Herbicidal post-emergence action (Table B4). Type of assay: in vivo, Kochia scoparia. Conditions: application rate 1280 g/ha; rated visually after about 3 weeks. On the procedure:
(§3) Seeds of mono- and dicotyledonous weed plants were placed in plastic pots in sandy loam soil (doubly sown with in each case one species of mono- or dicotyledonous weed plants per pot), covered with soil and cultivated in a greenhouse under controlled growth conditions. 2 to 3 weeks after sowing, the test plants were treated at the one-leaf stage. […] After the test plants had been kept in the greenhouse under optimum growth conditions for about 3 weeks, the activity of the preparations was rated visually in comparison to untreated controls. For example, 100% activity = the plants have died, 0% activity = like control plants.

In assay [15] the test system is LOLRI. The experiment in a line: Herbicidal post-emergence action (Table B5). Type of assay: in vivo, Lolium rigidum. Conditions: application rate 320 g/ha; rated visually after about 3 weeks. The method in brief: as §2
Assay [16] concerns POAAN. The experiment in a line: Herbicidal post-emergence action (Table B7). The settings on record: application rate 320 g/ha. The format is in vivo, Poa annua. In outline:
as §2

Assay [17] relates to SETVI. The experiment in a line: Herbicidal post-emergence action (Table B8). Type of assay: in vivo, Setaria viridis. The settings on record: application rate 320 g/ha. The method in brief: as §2
Assay [18] has as its system STEME. The experiment in a line: Herbicidal post-emergence action (Table B9). The settings on record: application rate 320 g/ha. Type of assay: in vivo, Stellaria media. On the procedure:
as §3

The subject of assay [19] is VERPE. The experiment in a line: Herbicidal post-emergence action (Table B10). The format is in vivo, Veronica persica. Conditions: application rate 320 g/ha. In outline: as §2
The test system of assay [20] is AMARE. The experiment in a line: Herbicidal post-emergence action (Table B11). Type of assay: in vivo, Amaranthus retroflexus. The settings on record: application rate 1280 g/ha. In outline:
as §2

Assay [21] deals with DIGSA. The experiment in a line: Herbicidal post-emergence action (Table B12). Type of assay: in vivo, Digitaria sanguinalis. Conditions: application rate 320 g/ha. The method, then:
as §3

For assay [22], the system named is ALOMY. The experiment in a line: Herbicidal pre-emergence action, section C (Table C2). The format is in vivo, Alopecurus myosuroides. The settings on record: application rate 320 g/ha; visual grading after ca. 3 weeks.
Assay [23] deals with AMARE. The experiment in a line: Herbicidal pre-emergence action, section C (Table C3). Type of assay: in vivo, Amaranthus retroflexus. The settings on record: application rate 320 g/ha; visual grading after ca. 3 weeks.
Description: (§4) Seeds of mono- and dicotyledonous weed plants and crop plants were sown, in plastic or organic planting pots, in sandy loam and covered with soil. The compounds according to the invention, formulated in the form of wettable powders (WP) or as emulsifiable concentrates (EC), were applied to the surface of the covering soil as aqueous suspension or emulsion, with the addition of 0.5% of an additive, at an application rate of 600 1 of water/ha (converted). Following treatment, the pots were placed in a greenhouse and kept under optimum growth conditions for the test plants.
In assay [24] the test system is DIGSA. The experiment in a line: Herbicidal pre-emergence action, section C (Table C5). Type of assay: in vivo, Digitaria sanguinalis. Conditions: application rate 320 g/ha; visual grading after ca. 3 weeks.
The test system of assay [25] is ECHCG. The experiment in a line: Herbicidal pre-emergence action, section C (Table C6). The format is in vivo, Echinochloa crus-galli. The settings on record: application rate 320 g/ha; visual grading after ca. 3 weeks.
Description: as §4

In the case of `O=C1N(Cc2cnc(Br)s2)CCCC12CCCN(Cc1cnc(Br)s1)C2=O` (single isomer, unassigned; (+)) [I-205, (+)-2,8-bis[(2-bromo-1,3-thiazol-5-yl)methyl]-2,8-diazaspiro[5.5]undecane-1,7-dione], the “pre-emergence activity against ABUTH” value with ABUTH [1] is 90%. Besides, the “pre-emergence activity against ECHCG” value in the assay with ECHCG [2] is 90%. The pest or weed control at 1280 g/ha with LOLRI [3] is 100%. Further, the “pre-emergence activity against MATIN” value with MATIN is 90%. Besides, the “pre-emergence activity against SETVI” value in the assay on SETVI [4] is 100%. In addition, the “pre-emergence activity against STEME” value in the assay on STEME [5] was found to be 90%. Further, the figures for the pest or weed control at 320 g/ha in the assay with POAAN [6] and in the assay on ECHCG [13] were 100% and 90%, respectively. Moreover, the “pre-emergence activity against AMARE” value with AMARE [7] is on record as 90%. In the assay with KCHSC [8], the “pre-emergence activity against KCHSC” value came out at 100%. Moreover, the “pre-emergence activity against VERPE” value in the assay on VERPE [9] stood at 100%. In addition, the “pre-emergence activity against DIGSA” value in the assay on DIGSA [10] amounted to 90%. Also, the “post-emergence activity against ABUTH” value in the assay with ABUTH [11] is on record as 90%. Also, the “post-emergence activity against ALOMY” value in the assay with ALOMY [12] was 90%. Besides, the “post-emergence activity against KCHSC” value in the assay on KCHSC [14] amounted to 90%. The “post-emergence activity against LOLRI” value with LOLRI [15] came to 90%. Moreover, the “post-emergence activity against POAAN” value in the assay with POAAN [16] is recorded as 90%. Besides, the “post-emergence activity against SETVI” value with SETVI [17] is on record as 90%. In the assay on STEME [18], the “post-emergence activity against STEME” value was 90%. Besides, the “post-emergence activity against VERPE” value in the assay with VERPE [19] stood at 90%. Moreover, the “post-emergence activity against AMARE” value in the assay with AMARE [20] is on record as 90%. The “post-emergence activity against DIGSA” value in the assay with DIGSA [21] amounted to 90%.
For the molecule `O=C1N(Cc2cc(F)c(F)cc2F)CCCC12CCCN(Cc1cc(F)c(F)cc1F)C2=O` (racemic) [I-213, 2,8-bis[(2,4,5-trifluorophenyl)methyl]-2,8-diazaspiro[5.5]undecane-1,7-dione], the “pre-emergence activity against ALOMY” value in the assay with ALOMY [22] stood at 90%. Besides, in the assay with AMARE [23], the “pre-emergence activity against AMARE” value is reported as 90%. Further, the “pre-emergence activity against DIGSA” value in the assay with DIGSA [24] stood at 80%. Moreover, in the assay on ECHCG [25], the “pre-emergence activity against ECHCG” value was 100%.
